Source: US7462615B2, “Inhibitors of cysteine proteases, the pharmaceutical compositions thereof and their therapeutic applications” (Hybrigenics SA, priority 2005, dated 2008)
Like-named read-outs stand apart in the source and are kept apart here.

Legend:
USP5 = biological target: T1, USP5 (Homo sapiens, UniProt P45974); experiment: USP5 Activity Assay; assay type: biochemical; details: 400 nM Ub-AMC; 300 pM enzyme; pre-incubated 30 minutes at 25° C., 60 minutes at 37° C.; sigmoidal fit; read-out: USP 5 (Inhibition of cysteine protease activities)
T1 sequence (P45974 1-858): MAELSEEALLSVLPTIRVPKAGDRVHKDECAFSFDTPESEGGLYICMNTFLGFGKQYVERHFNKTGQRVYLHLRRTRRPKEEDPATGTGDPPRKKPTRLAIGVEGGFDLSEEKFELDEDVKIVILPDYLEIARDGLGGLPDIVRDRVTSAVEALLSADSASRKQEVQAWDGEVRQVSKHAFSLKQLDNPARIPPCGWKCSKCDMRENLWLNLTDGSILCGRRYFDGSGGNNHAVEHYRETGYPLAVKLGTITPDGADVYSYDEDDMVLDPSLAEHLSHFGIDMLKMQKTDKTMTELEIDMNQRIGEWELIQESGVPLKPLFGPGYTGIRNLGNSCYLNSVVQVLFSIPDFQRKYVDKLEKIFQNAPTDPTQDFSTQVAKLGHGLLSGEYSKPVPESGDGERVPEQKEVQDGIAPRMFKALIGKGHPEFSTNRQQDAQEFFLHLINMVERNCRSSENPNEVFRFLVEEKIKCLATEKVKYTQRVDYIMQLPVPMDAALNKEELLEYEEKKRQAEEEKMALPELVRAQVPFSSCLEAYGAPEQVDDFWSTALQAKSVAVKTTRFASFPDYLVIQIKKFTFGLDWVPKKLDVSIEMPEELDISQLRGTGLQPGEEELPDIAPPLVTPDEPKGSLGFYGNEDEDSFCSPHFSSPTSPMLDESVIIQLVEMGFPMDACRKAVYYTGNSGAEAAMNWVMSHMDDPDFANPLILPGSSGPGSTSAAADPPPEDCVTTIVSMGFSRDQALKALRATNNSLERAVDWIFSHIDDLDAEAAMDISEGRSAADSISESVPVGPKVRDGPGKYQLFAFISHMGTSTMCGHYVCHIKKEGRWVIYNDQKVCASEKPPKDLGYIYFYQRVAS
Procedure: USP5 was diluted in USP buffer (50 mM Tris HCl; 0.5 mM EDTA; 5 mM DTT; 0.01% Triton X-100; Bovine Serum Albumin 0.05 mg.ml^−1 pH 7.6). Compounds stocks (100 mM) were stored at −20° C. in DMSO.
Reactions were performed as duplicates in Black LJL 96 well plates (HE microplates; Molecular Devices; 20 μl final reaction volume). The substrate concentration for USP5 was 400 nM Ub-AMC (Boston Biochem). The concentrations of the enzyme (USP5) in specificity assays was 300 pM. The concentrations were determined in order to perform specificity assays under initial velocities at fixed substrate concentration. Compounds were pre-incubated with enzymes for 30 minutes at 25° C. Reactions were initiated by addition of substrate to the plates containing the enzymes (+/− compounds) diluted in assay buffer. Reactions were incubated for 60 minutes at 37° C. Reactions were stopped by adding acetic acid (100 mM final). Readings were performed on a Pherastar Fluorescent Reader (BMG). λ Emission 380 nm; λ Excitation=460 nm. Data (mean values +/− standard deviation) were analyzed as % of control (no compound) and plotted as percentage versus the Log of the compound concentration using GraphPad (Prism). Data were fitted to a sigmoidal model (variable slope).

[1] = test system: PC-3 prostate cancer cells; experiment: PC3 Cell Viability and Proliferation Assay; assay type: cell-based; details: MTS, mean of three independent experiments, read-out: PC3 GI50 D3
Procedure: PC-3 prostate cancer cells were obtained from ATCC, and maintained in F-12K medium containing 7% FBS and 1% penicillin/streptomycin. Cells were incubated at 37° C. in a humidified atmosphere containing 5% CO2.
(§1) Cell viability was assayed using the MTS technique in 96-well culture plates (CellTiter 96® Aqueous Non-Radioactive Cell Proliferation Assay, Promega) according to the manufacturer's instructions. MTS (3-(4,5-dimethyl-thiazol-2-yl)-5-(3-carboxymethoxyphenyl)-2-(4-sulfophenyl)-2H-tetrazolium) is a MTT-derived tetrazolium that is reduced in metabolically active cells into a soluble, cell-permeant formazan. The amount of formazan, detected by its absorbance at 492 nm is proportional to the number of living, metabolically active cells.
(§2) 2×10^3 PC3 cells were seeded per well. 24 hours later, the medium was changed and the cells treated in triplicate with the following concentrations of each compound: 10 μM-3.33 μM-1.11 μM-370 nM-123 nM-41 nM-14 nM and 5 nM. The compounds were diluted in 100% DMSO, whose final concentration on cells was kept at 0.5%.
(§3) Cells were incubated with the compounds for 72 hours, and their viability then assayed by the addition of MTS for 2 hours. Absorbance at 492 nm was measured directly from the 96-well culture plates. GI50 (Growth Inhibition 50) concentrations for each compound were calculated using a sigmoidal variable slope fit (Prism 4.0, Graphpad Softwares). Values represent mean of three independent experiments.

[2] = test system: HCT116 colon cancer cells; experiment: HCT116 Cell Viability and Proliferation Assay; assay type: cell-based; details: MTS, mean of three independent experiments, read-out: HCT116 GI50 D3
Procedure: HCT116 colon cancer cells were obtained from ATCC (American Type Culture Collection), and maintained in Mc Coy's 5A medium containing 10% FBS, 3 mM glutamine and 1% penicillin/streptomycin. Cells were incubated at 37° C. in a humidified atmosphere containing 5% CO2.
as §1, with “(3-(4,5-dimethylthiazol-2-yl)-5(3-carboxymethoxyphenyl)-2-(4-sulfophenyl)-2H-tetra-zolium)” for “(3-(4,5-dimethyl-thiazol-2-yl)-5-(3-carboxymethoxyphenyl)-2-(4-sulfophenyl)-2H-tetrazolium)”
as §2, with “10^3 HCT116” for “2×10^3 PC3”
as §3

[3] = Homo sapiens, HCT-116, 72 hours

Row | IC50 (USP5) [µM] | Compound | also measured
1 | 7.6 | Cc1nnc2nc3c(nn12)C(=O)c1ccccc1-3 [Example 1b/A, 1-Methyl-2,3,4,10,10a-pentaaza-cyclopenta[b]fluoren-9-one] | –
2 | 23 | Cn1nc2nc3c(nc2n1)-c1ccccc1C3=O [Example 4a, 2-Methyl-2H-1,2,3,4,10-pentaaza-cyclopenta[b]fluoren-9-one] | GI50 ([1]; Homo sapiens, PC-3, 72 hours): > 10 µM; GI50 [2, 3]: > 10 µM
3 | > 100 | CCCc1nnc2nc3c(nn12)C(=O)c1ccccc1-3 [Example 1e/A, 1-Propyl-2,3,4,10,10a-pentaaza-cyclopenta[b]fluoren-9-one] | –
4 | 3.23 | CCc1nnc2nc3c(nn12)C(=O)c1ccccc1-3 [Example 1d/A, 1-Ethyl-2,3,4,10,10a-pentaaza-cyclopenta[b]fluoren-9-one] | –
5 | 2.5 | O=C1c2ccccc2-c2nc3nnc(CO)n3nc21 [Example 1h/A, 1-Hydroxymethyl-2,3,4,10,10a-pentaaza-cyclopenta[b]fluoren-9-one] | –
6 | 1.54 | 6-(7)-Chloro-1-methyl-2,3,4,10,10a-pentaaza-cyclopenta[b]fluoren-9-one [Example 3/A] | GI50 ([1]; 72 hours): 0.994 µM; GI50 ([2]; 72 hours): 0.361 µM
7 | 0.487 | COCc1nnc2nc3c(nn12)-c1ccccc1C3=O [Example 1i/B, 3-Methoxymethyl-1,2,3a, 4,10-pentaaza-cyclopenta[b]fluoren-9-one] | –
8 | – | O=C1c2ccccc2-c2nc3nn(Cc4ccccc4)nc3nc21 [Example 4b, 2-Benzyl-2H-1,2,3,4,10-pentaaza-cyclopenta[b]fluoren-9-one] | GI50 ([1]; Homo sapiens, PC-3, 72 hours): > 10 µM; GI50 [2, 3]: > 10 µM
9 | 0.237 | CCCCc1nnc2nc3c(nn12)-c1ccccc1C3=O [Example 1f/B, 3-Butyl-1,2,3a,4,10-pentaaza-cyclopenta[b]fluoren-9-one] | –
10 | 0.26 | Cc1nnc2nc3c(nn12)-c1ccc(Cl)cc1C3=O [Example 3/B, 7-Chloro-3-methyl-1,2,3a, 4,10-pentaaza-cyclopenta[b]fluoren-9-one] | –
11 | > 100 | CC(C)Cc1nnc2nc3c(nn12)C(=O)c1ccccc1-3 [Example 1g/A, 1-Isobutyl-2,3,4,10,10a-pentaaza-cyclopenta[b]fluoren-9-one] | –
12 | > 100 | COCc1nnc2nc3c(nn12)C(=O)c1ccccc1-3 [Example 1i/A, 1-Methoxymethyl-2,3,4,10,10a-pentaaza-cyclopenta[b]fluoren-9-one] | –
13 | 3.9 | CCCCc1nnc2nc3c(nn12)C(=O)c1ccccc1-3 [Example 1f/A, 1-Butyl-2,3,4,10,10a-pentaaza-cyclopenta[b]fluoren-9-one] | –
14 | 2.8 | Nc1nnc2nc3c(nn12)C(=O)c1ccccc1-3 [Example 1c/A, 1-Amino-2,3,4,10,10a-pentaaza-cyclopenta[b]fluoren-9-one] | GI50 ([1]; Homo sapiens, PC-3, 72 hours): > 10 µM
